{"source": "patent US9796727B2", "about": "“Field effect transistor” (Nippon Kayaku Kabushiki Kaisha, priority 2009, dated 2017)", "data": [{"assay": "Solubility measurement in toluene", "format": "physicochemical", "conditions": "60° C.", "description": "Example 1: Solubility Measurement\nIn Table 2, solubility (g/L) in toluene at 60° C. is listed.", "units": {"solubility in toluene": "µg/mL"}, "values": [{"compound": "CCCCCCc1ccc2cc3c(cc2c1)sc1c2cc4ccc(CCCCCC)cc4cc2sc31", "note": "[compound 6, 6,6′-Dihexyldinaphtho[2,3-b:2′,3′-f]thieno[3,2-b]thiophen]", "solubility in toluene": 80}, {"compound": "CCCCCCCCc1ccc2cc3c(cc2c1)sc1c2cc4ccc(CCCCCCCC)cc4cc2sc31", "note": "[Compound No. 10, 6,6′-dioctyldinaphtho[2,3-b:2′,3′-f]thieno[3,2-b]thiophen]", "solubility in toluene": 60}, {"compound": "CCCCCCCCCCc1ccc2cc3c(cc2c1)sc1c2cc4ccc(CCCCCCCCCC)cc4cc2sc31", "note": "[Compound No. 12, 6,6′-Didecyldinaphtho[2,3-b:2′,3′-f]thieno[3,2-b]thiophen]", "solubility in toluene": 50}, {"compound": "CCCCCCCCCCCCc1ccc2cc3c(cc2c1)sc1c2cc4ccc(CCCCCCCCCCCC)cc4cc2sc31", "note": "[Compound No. 14, 6,6′-Didodecyldinaphtho[2,3-b:2′,3′-f]thieno[3,2-b]thiophen]", "solubility in toluene": 40}, {"compound": "CCCCc1ccc2cc3c(cc2c1)sc1c2cc4ccc(CCCC)cc4cc2sc31", "note": "[ref. 2, 6,6′-Dibutyldinaphtho[2,3-b:2′,3′-f]thieno[3,2-b]thiophen, reference compound]", "solubility in toluene": 20}, {"compound": "c1ccc2cc3c(cc2c1)sc1c2cc4ccccc4cc2sc31", "note": "[ref. 1, dinaphtho[2,3-b:2′,3′-f]thieno[3,2-b]thiophene, reference compound]", "solubility in toluene": "≤ 10"}]}]}
